Measurements reported in US20090099158A1, “TETRAHYDROISOQUINOLINE COMPOUNDS AS MODULATORS OF THE HISTAMINE H3 RECEPTOR” (priority 2007, published 2009).
pKi: −log10 of the molar value.

target: T1, cloned human H3 receptors (Homo sapiens, UniProt Q9Y5N1); assay: H3 Receptor Binding (Human); settings: cloned human H3 receptors stably expressed in SK-N-MC cells; average of the results obtained
T1 construct: expressed in transfected cells; host or cells: SK-N-MC cells
Description: Binding of compounds to the cloned human H3 receptors, stably expressed in SK-N-MC cells, was performed as described by Barbier, A. J. et al. (Br. J. Pharmacol. 2004, 143(5), 649-661). Data for compounds tested in this assay are presented in Table 1 as an average of the results obtained.

T1 sequence (Q9Y5N1 whole entry): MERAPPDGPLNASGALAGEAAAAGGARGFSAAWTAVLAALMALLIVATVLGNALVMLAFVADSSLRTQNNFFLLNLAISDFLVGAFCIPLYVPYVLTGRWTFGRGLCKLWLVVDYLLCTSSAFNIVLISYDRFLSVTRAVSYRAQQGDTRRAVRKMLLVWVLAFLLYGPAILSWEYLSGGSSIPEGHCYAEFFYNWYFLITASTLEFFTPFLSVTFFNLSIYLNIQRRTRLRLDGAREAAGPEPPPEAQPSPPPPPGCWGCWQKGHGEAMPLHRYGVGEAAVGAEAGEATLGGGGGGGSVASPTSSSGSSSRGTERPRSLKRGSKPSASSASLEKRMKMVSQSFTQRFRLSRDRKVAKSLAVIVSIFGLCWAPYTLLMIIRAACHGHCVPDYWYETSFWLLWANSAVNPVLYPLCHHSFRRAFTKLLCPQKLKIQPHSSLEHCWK

Row | Structure (SMILES) | pKi
1 | O=C(c1ccc2c(c1)CCN(C(=O)c1cccc(F)c1)C2)N1CCN(C2CCC2)CC1 [Example 62, (4-Cyclobutyl-piperazin-1-yl)-[2-(3-fluoro-benzoyl)-1,2,3,4-tetrahydro-isoquinolin-6-yl]-methanone] | 7.62
2 | CCC(=O)N1CCc2cc(C(=O)N3CCN(C4CCCC4)CC3)ccc2C1 [Example 63, 1-[6-(4-Cyclopentyl-piperazine-1-carbonyl)-3,4-dihydro-1H-isoquinolin-2-yl]-propan-1-one] | 7.21
3 | CC(C)(C)C(=O)N1CCc2cc(C(=O)N3CCN(C4CCCC4)CC3)ccc2C1 [Example 64, 1-[6-(4-Cyclopentyl-piperazine-1-carbonyl)-3,4-dihydro-1H-isoquinolin-2-yl]-2,2-dimethyl-propan-1-one] | 7.00
4 | O=C(c1ccc2c(c1)CCN(C(=O)c1ccc(F)cc1)C2)N1CCN(C2CCCC2)CC1 [Example 67, (4-Cyclopentyl-piperazin-1-yl)-[2-(4-fluoro-benzoyl)-1,2,3,4-tetrahydro-isoquinolin-6-yl]-methanone] | 7.28
5 | O=C(c1ccc2c(c1)CCN(C(=O)c1ccc(Cl)cc1)C2)N1CCN(C2CCCC2)CC1 [Example 69, [2-(4-Chloro-benzoyl)-1,2,3,4-tetrahydro-isoquinolin-6-yl]-(4-cyclopentyl-piperazin-1-yl)-methanone] | 7.04
6 | Cc1ccc(C(=O)N2CCc3cc(C(=O)N4CCN(C5CCCC5)CC4)ccc3C2)cc1 [Example 70, (4-Cyclopentyl-piperazin-1-yl)-[2-(4-methyl-benzoyl)-1,2,3,4-tetrahydro-isoquinolin-6-yl]-methanone] | 7.19
7 | O=C(Cc1ccc(F)cc1)N1CCc2cc(C(=O)N3CCN(C4CCCC4)CC3)ccc2C1 [Example 71, 1-[6-(4-Cyclopentyl-piperazine-1-carbonyl)-3,4-dihydro-1H-isoquinolin-2-yl]-2-(4-fluoro-phenyl)-ethanone] | 7.32
8 | O=C(c1ccc2c(c1)CCN(C(=O)c1cccc(F)c1)C2)N1CCN(C2CCCCC2)CC1 [Example 73, (4-Cyclohexyl-piperazin-1-yl)-[2-(3-fluoro-benzoyl)-1,2,3,4-tetrahydro-isoquinolin-6-yl]-methanone] | 6.96
9 | O=C(c1ccc2c(c1)CCN(C(=O)c1ccc(F)cc1)C2)N1CCN(C2CCCCC2)CC1 [Example 74, (4-Cyclohexyl-piperazin-1-yl)-[2-(4-fluoro-benzoyl)-1,2,3,4-tetrahydro-isoquinolin-6-yl]-methanone] | 6.96
10 | O=C(c1ccc2c(c1)CCN(C(=O)c1cccc(Cl)c1)C2)N1CCN(C2CCCCC2)CC1 [Example 76, [2-(3-Chloro-benzoyl)-1,2,3,4-tetrahydro-isoquinolin-6-yl]-(4-cyclohexyl-piperazin-1-yl)-methanone] | 7.00
11 | O=C(c1ccc2c(c1)CCN(C(=O)c1ccc(Cl)cc1)C2)N1CCN(C2CCCCC2)CC1 [Example 77, [2-(4-Chloro-benzoyl)-1,2,3,4-tetrahydro-isoquinolin-6-yl]-(4-cyclohexyl-piperazin-1-yl)-methanone] | 6.74

Continued, values first:

Row | pKi | Structure (SMILES)
12 | 8.05 | N#Cc1ccc(C(=O)N2CCc3cc(C(=O)N4CCC[C@H]4CN4CCCC4)ccc3C2)cc1 [Example 53, (S)-4-[6-(2-Pyrrolidin-1-ylmethyl-pyrrolidine-1-carbonyl)-3,4-dihydro-1H-isoquinoline-2-carbonyl]-benzonitrile]
13 | 8.05 | Cc1ccccc1C(=O)N1CCc2cc(C(=O)N3CCC[C@H]3CN3CCCC3)ccc2C1 [Example 54, (S)-[6-(2-Pyrrolidin-1-ylmethyl-pyrrolidine-1-carbonyl)-3,4-dihydro-1H-isoquinolin-2-yl]-o-tolyl-methanone]
14 | 7.66 | Cc1ccc(C(=O)N2CCc3cc(C(=O)N4CCC[C@H]4CN4CCCC4)ccc3C2)cc1 [Example 55, (S)-[6-(2-Pyrrolidin-1-ylmethyl-pyrrolidine-1-carbonyl)-3,4-dihydro-1H-isoquinolin-2-yl]-p-tolyl-methanone]
15 | 7.64 | O=C(c1ccccc1F)N1CCc2cc(C(=O)N3CCC[C@H]3CN3CCCC3)ccc2C1 [Example 56, (S)-(2-Fluoro-phenyl)-[6-(2-Pyrrolidin-1-ylmethyl-pyrrolidine-1-carbonyl)-3,4-dihydro-1H-isoquinolin-2-yl]-methanone]
16 | 7.85 | O=C(c1cccc(F)c1)N1CCc2cc(C(=O)N3CCC[C@H]3CN3CCCC3)ccc2C1 [Example 57, (S)-(3-Fluoro-phenyl)-[6-(2-pyrrolidin-1-ylmethyl-pyrrolidine-1-carbonyl)-3,4-dihydro-1H-isoquinolin-2-yl]-methanone]
17 | 7.77 | O=C(c1ccc(F)cc1)N1CCc2cc(C(=O)N3CCC[C@H]3CN3CCCC3)ccc2C1 [Example 58, (S)-(4-Fluoro-phenyl)-[6-(2-pyrrolidin-1-ylmethyl-pyrrolidine-1-carbonyl)-3,4-dihydro-1H-isoquinolin-2-yl]-methanone]
18 | 7.92 | COc1cccc(C(=O)N2CCc3cc(C(=O)N4CCC[C@H]4CN4CCCC4)ccc3C2)c1 [Example 59, (S)-(3-Methoxy-phenyl)-[6-(2-Pyrrolidin-1-ylmethyl-pyrrolidine-1-carbonyl)-3,4-dihydro-1H-isoquinolin-2-yl]-methanone]
19 | 7.68 | COc1ccc(C(=O)N2CCc3cc(C(=O)N4CCC[C@H]4CN4CCCC4)ccc3C2)cc1 [Example 60, (S)-(4-Methoxy-phenyl)-[6-(2-pyrrolidin-1-ylmethyl-pyrrolidine-1-carbonyl)-3,4-dihydro-1H-isoquinolin-2-yl]-methanone]
20 | 8.15 | COc1ccc(CC(=O)N2CCc3cc(C(=O)N4CCC[C@H]4CN4CCCC4)ccc3C2)cc1 [Example 61]
21 | 7.00 | O=C(c1ccc2c(c1)CCN(C(=O)c1ccccc1)C2)N1CCN(C2CCCC2)CC1 [Example 65, (2-Benzoyl-1,2,3,4-tetrahydro-isoquinolin-6-yl)-(4-cyclopentyl-piperazin-1-yl)-methanone]
22 | 7.37 | O=C(c1ccc2c(c1)CCN(C(=O)c1ccccc1F)C2)N1CCN(C2CCCC2)CC1 [Example 66, (4-Cyclopentyl-piperazin-1-yl)-[2-(2-fluoro-benzoyl)-1,2,3,4-tetrahydro-isoquinolin-6-yl]-methanone]
23 | 7.49 | O=C(c1ccc2c(c1)CCN(C(=O)c1ccccc1Cl)C2)N1CCN(C2CCCC2)CC1 [Example 68, [2-(2-Chloro-benzoyl)-1,2,3,4-tetrahydro-isoquinolin-6-yl]-(4-cyclopentyl-piperazin-1-yl)-methanone]
24 | 7.10 | O=C(c1ccc2c(c1)CCN(C(=O)c1ccccc1F)C2)N1CCN(C2CCCCC2)CC1 [Example 72, (4-Cyclohexyl-piperazin-1-yl)-[2-(2-fluoro-benzoyl)-1,2,3,4-tetrahydro-isoquinolin-6-yl]-methanone]
25 | 7.11 | O=C(c1ccc2c(c1)CCN(C(=O)c1ccccc1Cl)C2)N1CCN(C2CCCCC2)CC1 [Example 75, [2-(2-Chloro-benzoyl)-1,2,3,4-tetrahydro-isoquinolin-6-yl]-(4-cyclohexyl-piperazin-1-yl)-methanone]
26 | 7.15 | COc1ccccc1C(=O)N1CCc2cc(C(=O)N3CCN(C4CCCCC4)CC3)ccc2C1 [Example 78, (4-Cyclohexyl-piperazin-1-yl)-[2-(2-methoxy-benzoyl)-1,2,3,4-tetrahydro-isoquinolin-6-yl]-methanone]
